Data as given in patent publication US20250382344A1, “Soluble GLP1/GIP/NPY2 Receptor Triple Agonists” (Boehringer Ingelheim International GmH, priority 2024, published 2025).
Like-named read-outs stand apart in the source and are kept apart here.

Legend:
hGLP1R = biological target: T1, hGLP1R (Homo sapiens, UniProt P43220); assay: hGLP1R CreLuc assay in 0.5% and 100% plasma (HEK-293 CRE-luciferase reporter cells); type: cell-based; settings: 0.5% human plasma, HEK-293 reporter cells, read-out: hGLP1R 0.5% hP
T1 construct: expressed in transfected cells; host or cells: HEK-293 CRE-luciferase reporter cells

hNPY2R = biological target: T2, hNPY2R (Homo sapiens, UniProt P49146); assay: hNPY2R CreLuc assay in 0.5% and 100% plasma (HEK-293 CRE-luciferase reporter cells); type: cell-based; settings: HEK-293 reporter cells
T2 construct: expressed in transfected cells; host or cells: HEK-293 CRE-luciferase reporter cells
T2 sequence (P49146 1-381): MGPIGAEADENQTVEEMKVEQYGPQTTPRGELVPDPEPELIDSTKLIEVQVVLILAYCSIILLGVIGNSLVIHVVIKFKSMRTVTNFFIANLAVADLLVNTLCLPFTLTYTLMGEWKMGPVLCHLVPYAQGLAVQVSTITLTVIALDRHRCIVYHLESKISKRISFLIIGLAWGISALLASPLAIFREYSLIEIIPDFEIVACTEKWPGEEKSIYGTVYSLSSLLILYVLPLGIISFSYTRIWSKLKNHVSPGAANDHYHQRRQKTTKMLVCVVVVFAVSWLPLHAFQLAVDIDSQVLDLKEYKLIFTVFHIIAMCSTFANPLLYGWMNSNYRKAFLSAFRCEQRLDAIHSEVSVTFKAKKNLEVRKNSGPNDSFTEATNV

hGIPR = biological target: T3, hGIPR (Homo sapiens, UniProt P48546); assay: hGIPR CreLuc assay in 0.5% and 100% plasma (CHO CRE-luciferase reporter cells); type: cell-based
T3 construct: expressed in transfected cells; host or cells: CHO CRE-luciferase reporter cells
T3 sequence (P48546 22-466): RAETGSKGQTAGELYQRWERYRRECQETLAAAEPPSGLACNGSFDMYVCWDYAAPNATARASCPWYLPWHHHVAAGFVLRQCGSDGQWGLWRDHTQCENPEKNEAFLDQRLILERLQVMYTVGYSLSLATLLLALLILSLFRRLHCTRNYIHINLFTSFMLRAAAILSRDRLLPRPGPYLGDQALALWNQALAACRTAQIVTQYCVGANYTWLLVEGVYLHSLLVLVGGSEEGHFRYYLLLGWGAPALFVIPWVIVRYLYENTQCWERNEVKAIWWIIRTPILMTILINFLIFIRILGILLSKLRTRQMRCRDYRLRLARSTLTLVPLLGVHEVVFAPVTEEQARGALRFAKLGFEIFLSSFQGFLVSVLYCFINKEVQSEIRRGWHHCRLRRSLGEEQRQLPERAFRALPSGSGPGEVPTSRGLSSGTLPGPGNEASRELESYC

[1] = Solubility in 0.1 M phosphate buffer at pH 7; type: physicochemical; settings: 0.1 M phosphate buffer at pH 7, 10 mg/mL final peptide concentration, shaking 2 hours at room temperature, peptides as TFA-salts; measured sample pH 6.5-7.0
[2] = 0.5% human plasma, read-out: hNPY2R 0.5% hP
[3] = 0.5% human plasma, read-out: hGIPR 0.5% hP
[4] = 100% human plasma, read-out: hNPY2R 100% hP

T1 sequence (P43220 24-463): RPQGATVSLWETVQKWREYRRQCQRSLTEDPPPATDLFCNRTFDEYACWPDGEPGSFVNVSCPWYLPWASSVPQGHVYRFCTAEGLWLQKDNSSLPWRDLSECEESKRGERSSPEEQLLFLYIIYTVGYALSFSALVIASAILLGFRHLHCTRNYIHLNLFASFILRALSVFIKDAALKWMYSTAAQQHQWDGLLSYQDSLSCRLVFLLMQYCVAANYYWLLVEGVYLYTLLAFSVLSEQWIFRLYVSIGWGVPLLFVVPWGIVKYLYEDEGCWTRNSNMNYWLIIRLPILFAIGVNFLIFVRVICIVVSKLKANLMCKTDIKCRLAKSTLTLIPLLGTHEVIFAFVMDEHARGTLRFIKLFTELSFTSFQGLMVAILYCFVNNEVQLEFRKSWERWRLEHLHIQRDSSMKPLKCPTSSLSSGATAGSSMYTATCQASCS

Row | SMILES | EC50 (hGLP1R) [nM] | EC50 (hNPY2R; [2]) [nM] | EC50 (hGIPR; [3]) [nM] | solubility at 2 h [1] [µg/mL] | EC50 (hNPY2R; [4]) [nM] | EC50 (hGIPR; 100% human plasma, read-out: hGIPR 100% hP) [nM]
1 | CC[C@H](C)[C@H](NC(=O)[C@H](CC(C)C)NC(=O)[C@H](Cc1c[nH]cn1)NC(=O)[C@H](CCCNC(=N)N)NC(=O)[C@@H](NC(=O)[C@H](Cc1ccccc1)NC(=O)[C@H](C)NC(=O)C(C)(C)NC(=O)[C@H](CCC(N)=O)NC(=O)[C@H](C)NC(=O)[C@H](CCC(N)=O)NC(=O)[C@H](CCCCN)NC(=O)[C@H](CCC(=O)O)NC(=O)[C@H](CC(C)C)NC(=O)C(C)(C)NC(=O)[C@@H](NC(=O)[C@H](CO)NC(=O)[C@H](Cc1ccc(O)cc1)NC(=O)[C@H](CC(=O)O)NC(=O)[C@H](CO)NC(=O)[C@@H](NC(=O)[C@H](Cc1ccccc1)NC(=O)[C@@H](NC(=O)CNC(=O)[C@H](CCC(=O)O)NC(=O)C(C)(C)NC(=O)[C@@H](N)Cc1ccc(O)cc1)[C@@H](C)O)[C@@H](C)O)[C@@H](C)CC)C(C)C)C(=O)N[C@@H](CC(N)=O)C(=O)N[C@@H](CCCCNC(=O)COCCOCCNC(=O)CC[C@H](NC(=O)CC[C@H](NC(=O)CC[C@H](NC(=O)CC[C@H](NC(=O)CC[C@H](NC(=O)CC[C@H](NC(=O)CCCCCCCCCCCCCCCCC(=O)O)C(=O)O)C(=O)O)C(=O)O)C(=O)O)C(=O)O)C(=O)O)C(=O)NC(C)(C)C(=O)N[C@H](C(=O)N[C@@H](CCCNC(=N)N)C(=O)N[C@@H](CCC(N)=O)C(=O)N[C@@H](CCCNC(=N)N)C(=O)N[C@@H](Cc1ccc(O)cc1)C(N)=O)[C@@H](C)O [Compound 47, Y-Aib-E-G-T-F-T-S-D-Y-S-I-Aib-L-E-K-Q-A-Q-Aib-A-F-V-R-H-L-I-N-K(1,3)-Aib-T-R-Q-R-Y-NH2.C18DA-gGlu-gGlu-gGlu-gGlu-gGlu-gGlu-OEG(1,2)] | 0.8 | 19.9 | 0.3 | 10000 | – | –
2 | CC[C@H](C)[C@H](NC(=O)[C@H](CC(C)C)NC(=O)[C@H](Cc1c[nH]cn1)NC(=O)[C@H](CCCNC(=N)N)NC(=O)[C@@H](NC(=O)[C@H](Cc1ccccc1)NC(=O)[C@H](CCC(=O)O)NC(=O)C(C)(C)NC(=O)[C@H](CCC(N)=O)NC(=O)[C@H](C)NC(=O)[C@H](CCC(N)=O)NC(=O)[C@H](CCCCN)NC(=O)[C@H](CCC(=O)O)NC(=O)[C@H](CC(C)C)NC(=O)C(C)(C)NC(=O)[C@@H](NC(=O)[C@H](CO)NC(=O)[C@H](Cc1ccc(O)cc1)NC(=O)[C@H](CC(=O)O)NC(=O)[C@H](CO)NC(=O)[C@@H](NC(=O)[C@H](Cc1ccccc1)NC(=O)[C@@H](NC(=O)CNC(=O)[C@H](CCC(=O)O)NC(=O)C(C)(C)NC(=O)[C@@H](N)Cc1ccc(O)cc1)[C@@H](C)O)[C@@H](C)O)[C@@H](C)CC)C(C)C)C(=O)N[C@@H](CC(N)=O)C(=O)N[C@@H](CCCCNC(=O)COCCOCCNC(=O)CC[C@H](NC(=O)CC[C@H](NC(=O)CC[C@H](NC(=O)CC[C@H](NC(=O)CC[C@H](NC(=O)CCCCCCCCCCCCCCCCC(=O)O)C(=O)O)C(=O)O)C(=O)O)C(=O)O)C(=O)O)C(=O)NC(C)(C)C(=O)N[C@H](C(=O)N[C@@H](CCCNC(=N)N)C(=O)N[C@@H](CCC(N)=O)C(=O)N[C@@H](CCCNC(=N)N)C(=O)N[C@@H](Cc1ccc(O)cc1)C(N)=O)[C@@H](C)O [Compound 8, Y-Aib-E-G-T-F-T-S-D-Y-S-I-Aib-L-E-K-Q-A-Q-Aib-E-F-V-R-H-L-I-N-K(1,3)-Aib-T-R-Q-R-Y-NH2.C18DA-gGlu-gGlu-gGlu-gGlu-gGlu-OEG(1,2)] | 0.3 | – | 0.3 | 4900 | 476 | 14.2
3 | CC[C@H](C)[C@H](NC(=O)[C@H](CC(C)C)NC(=O)[C@H](CCC(N)=O)NC(=O)[C@H](CCCNC(=N)N)NC(=O)[C@@H](NC(=O)[C@H](Cc1ccccc1)NC(=O)[C@H](C)NC(=O)C(C)(C)NC(=O)[C@H](CCC(N)=O)NC(=O)[C@H](C)NC(=O)[C@H](CCC(N)=O)NC(=O)[C@H](CCCCN)NC(=O)[C@H](CCC(=O)O)NC(=O)[C@H](CC(C)C)NC(=O)C(C)(C)NC(=O)[C@@H](NC(=O)[C@H](CO)NC(=O)[C@H](Cc1ccc(O)cc1)NC(=O)[C@H](CC(=O)O)NC(=O)[C@H](CO)NC(=O)[C@@H](NC(=O)[C@H](Cc1ccccc1)NC(=O)[C@@H](NC(=O)CNC(=O)[C@H](CCC(=O)O)NC(=O)C(C)(C)NC(=O)[C@@H](N)Cc1ccc(O)cc1)[C@@H](C)O)[C@@H](C)O)[C@@H](C)CC)C(C)C)C(=O)N[C@@H](CC(N)=O)C(=O)N[C@@H](CCCCNC(=O)CC[C@H](NC(=O)CC[C@H](NC(=O)CC[C@H](NC(=O)CC[C@H](NC(=O)CC[C@H](NC(=O)CCCCCCCCCCCCCCCCC(=O)O)C(=O)O)C(=O)O)C(=O)O)C(=O)O)C(=O)O)C(=O)NC(C)(C)C(=O)N[C@H](C(=O)N[C@@H](CCCNC(=N)N)C(=O)N[C@@H](CCC(N)=O)C(=O)N[C@@H](CCCNC(=N)N)C(=O)N[C@@H](Cc1ccc(O)cc1)C(N)=O)[C@@H](C)O [Compound 50, Y-Aib-E-G-T-F-T-S-D-Y-S-I-Aib-L-E-K-Q-A-Q-Aib-A-F-V-R-Q-L-I-N-K(1,3)-Aib-T-R-Q-R-Y-NH2.C18DA-gGlu-gGlu-gGlu-gGlu-gGlu(1,2)] | 0.7 | – | 0.7 | 4500 | 523 | –

Now from value to compound:

Row | EC50 (hGLP1R) [nM] | EC50 (hNPY2R; [2]) [nM] | EC50 (hGIPR; [3]) [nM] | solubility at 2 h [1] [µg/mL] | EC50 (hNPY2R; [4]) [nM] | EC50 (hGIPR; 100% human plasma, read-out: hGIPR 100% hP) [nM] | SMILES
4 | 0.3 | 60.8 | 0.1 | 3800 | – | – | CC[C@H](C)[C@H](NC(=O)[C@H](CO)NC(=O)[C@H](Cc1ccc(O)cc1)NC(=O)[C@H](CC(=O)O)NC(=O)[C@H](CO)NC(=O)[C@@H](NC(=O)[C@H](Cc1ccccc1)NC(=O)[C@@H](NC(=O)CNC(=O)[C@H](CCC(=O)O)NC(=O)C(C)(C)NC(=O)[C@@H](N)Cc1ccc(O)cc1)[C@@H](C)O)[C@@H](C)O)C(=O)N[C@@H](CC(C)C)C(=O)N[C@@H](CC(C)C)C(=O)N[C@@H](CCC(=O)O)C(=O)N[C@@H](CCCCN)C(=O)N[C@@H](CCC(N)=O)C(=O)N[C@@H](C)C(=O)N[C@@H](CCC(N)=O)C(=O)NC(C)(C)C(=O)N[C@@H](C)C(=O)N[C@@H](Cc1ccccc1)C(=O)N[C@H](C(=O)N[C@@H](CCCNC(=N)N)C(=O)N[C@@H](Cc1c[nH]cn1)C(=O)N[C@@H](CC(C)C)C(=O)N[C@H](C(=O)N[C@@H](CC(N)=O)C(=O)N[C@@H](CCCCNC(=O)CC[C@H](NC(=O)CC[C@H](NC(=O)CC[C@H](NC(=O)CC[C@H](NC(=O)CC[C@H](NC(=O)CCCCCCCCCCCCCCCCC(=O)O)C(=O)O)C(=O)O)C(=O)O)C(=O)O)C(=O)O)C(=O)NC(C)(C)C(=O)N[C@H](C(=O)N[C@@H](CCCNC(=N)N)C(=O)N[C@@H](CCC(N)=O)C(=O)N[C@@H](CCCNC(=N)N)C(=O)N[C@@H](Cc1ccc(O)cc1)C(N)=O)[C@@H](C)O)[C@@H](C)CC)C(C)C [Compound 122, Y-Aib-E-G-T-F-T-S-D-Y-S-I-L-L-E-K-Q-A-Q-Aib-A-F-V-R-H-L-I-N-K(1,3)-Aib-T-R-Q-R-Y-NH2.C18DA-gGlu-gGlu-gGlu-gGlu-gGlu(1,2)]
5 | 0.2 | – | 0.2 | 9100 | 119 | – | CC[C@H](C)[C@H](NC(=O)[C@H](CC(C)C)NC(=O)[C@H](Cc1c[nH]cn1)NC(=O)[C@H](CCCNC(=N)N)NC(=O)[C@@H](NC(=O)[C@H](Cc1ccccc1)NC(=O)[C@H](C)NC(=O)C(C)(C)NC(=O)[C@H](CCC(N)=O)NC(=O)[C@H](C)NC(=O)[C@H](CCC(N)=O)NC(=O)[C@H](CCC(N)=O)NC(=O)[C@H](CC(=O)O)NC(=O)[C@H](CC(C)C)NC(=O)C(C)(C)NC(=O)[C@@H](NC(=O)[C@H](CO)NC(=O)[C@H](Cc1ccc(O)cc1)NC(=O)[C@H](CC(=O)O)NC(=O)[C@H](CO)NC(=O)[C@@H](NC(=O)[C@H](Cc1ccccc1)NC(=O)[C@@H](NC(=O)CNC(=O)[C@H](CCC(=O)O)NC(=O)C(C)(C)NC(=O)[C@@H](N)Cc1ccc(O)cc1)[C@@H](C)O)[C@@H](C)O)[C@@H](C)CC)C(C)C)C(=O)N[C@@H](CC(N)=O)C(=O)N[C@@H](CCCCNC(=O)[C@@H](N)CCCCNC(=O)CC[C@H](NC(=O)CC[C@H](NC(=O)CC[C@H](NC(=O)CC[C@H](NC(=O)CC[C@H](NC(=O)CCCCCCCCCCCCCCCCC(=O)O)C(=O)O)C(=O)O)C(=O)O)C(=O)O)C(=O)O)C(=O)NC(C)(C)C(=O)N[C@H](C(=O)N[C@@H](CCCNC(=N)N)C(=O)N[C@@H](CCC(N)=O)C(=O)N[C@@H](CCCNC(=N)N)C(=O)N[C@@H](Cc1ccc(O)cc1)C(N)=O)[C@@H](C)O [Compound 70, Y-Aib-E-G-T-F-T-S-D-Y-S-I-Aib-L-D-Q-Q-A-Q-Aib-A-F-V-R-H-L-I-N-K(1,3)-Aib-T-R-Q-R-Y-NH2.C18DA-gGlu-gGlu-gGlu-gGlu-gGlu-eLys(1,2)]
